In PubChem BioAssay (NCI):
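Cultured in 96-well plates, cells were exposed to test compound for 48 hours across five concentrations. Abbreviation: GI50, concentration required for 50% inhibition of growth. TGI denotes the concentration required for complete inhibition of growth.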

Experiments:
Assay in all cases: DTP human tumour cell line panel, 48 h
[1] = tested on: SNB-19 CNS
[2] = tested on: MALME-3M melanoma
[3] = tested on: KM12 colon
[4] = tested on: HL-60(TB) leukemia
[5] = tested on: HS 578T breast
[6] = tested on: UACC-62 melanoma
[7] = tested on: SK-MEL-5 melanoma
[8] = tested on: MOLT-4 leukemia
[9] = tested on: NCI-H522 lung
[10] = tested on: U251 CNS
[11] = tested on: SF-268 CNS
[12] = tested on: IGROV1 ovarian
[13] = tested on: OVCAR-5 ovarian
[14] = tested on: RPMI-8226 leukemia
[15] = tested on: SNB-75 CNS
[16] = tested on: HCT-116 colon
[17] = tested on: RXF 393 renal
[18] = tested on: NCI-H226 lung
[19] = tested on: ACHN renal
[20] = tested on: HCC-2998 colon
[21] = tested on: NCI-H460 lung
[22] = tested on: SF-539 CNS
[23] = tested on: PC-3 prostate
[24] = tested on: HT29 colon
[25] = tested on: MDA-MB-231 breast
[26] = tested on: A549 NSCLC
[27] = tested on: CAKI-1 renal
[28] = tested on: OVCAR-4 ovarian
[29] = tested on: 786-0 renal
[30] = tested on: K-562 leukemia
[31] = tested on: HOP-92 NSCLC
[32] = tested on: HOP-62 NSCLC
[33] = tested on: UO-31 renal
[34] = tested on: SK-MEL-28 melanoma
[35] = tested on: MDA-MB-435
[36] = tested on: TK-10 renal
[37] = tested on: LOX IMVI melanoma
[38] = tested on: BT-549 breast
[39] = tested on: T-47D breast
[40] = tested on: NCI/ADR-RES ovarian
[41] = tested on: A498 renal
[42] = tested on: OVCAR-8 ovarian
[43] = tested on: NCI-H23 lung
[44] = tested on: SW-620 colon
[45] = tested on: M14 melanoma
[46] = tested on: UACC-257 melanoma
[47] = tested on: CCRF-CEM leukemia
[48] = tested on: OVCAR-3 ovarian
[49] = tested on: COLO 205 colon
[50] = tested on: HCT-15 colon
[51] = tested on: DU-145 prostate
[52] = tested on: EKVX NSCLC
[53] = tested on: MCF7 breast
[54] = tested on: SF-295 CNS
[55] = tested on: SK-OV-3 ovarian
[56] = tested on: SK-MEL-2 melanoma
[57] = tested on: SN12C renal

In the case of COc1cc2c3c(n(CCCNCCNCCN)c(=O)c2cc1OC)-c1cc2c(cc1C3=O)OCO2, the GI50 [1] is reported as 2.12 µM, the TGI [1] is reported as > 100 µM and the GI50 [2] is reported as 0.699 µM. It also gave a TGI [2] of 5.75 µM, a GI50 [3] of 3.41 µM and a TGI [3] of 17.8 µM. It also gave a GI50 [4] of 1.14 µM, a TGI [4] of 15.6 µM and a GI50 [5] of 3.07 µM. For the same molecule, the TGI [5] was 15.7 µM, the GI50 [6] was 2.34 µM and the TGI [6] was 12.8 µM. For the same molecule, the GI50 [7] was 1.99 µM, the TGI [7] was 9.5 µM and the GI50 [8] was 0.186 µM. The TGI [8] was 1.8 µM, the GI50 [9] was 2.85 µM and the TGI [9] was > 24.3 µM. For the same molecule, the GI50 [10] was 1.85 µM, the TGI [10] was > 100 µM and the GI50 [11] was 1.72 µM. For the same molecule, the TGI [11] was 21.7 µM, the GI50 [12] was 5.21 µM and the TGI [12] was > 100 µM. For the same molecule, the GI50 [13] was 3.61 µM, the TGI [13] was > 25.2 µM and the GI50 [14] was 1.22 µM. For the same molecule, the TGI [14] was 3.44 µM, the GI50 [15] was 0.277 µM and the TGI [15] was 9.47 µM. For the same molecule, the GI50 [16] was 0.831 µM, the TGI [16] was 2.19 µM and the GI50 [17] was 5.78 µM. For the same molecule, the TGI [17] was > 29.3 µM, the GI50 [18] was 4.08 µM and the TGI [18] was 21.4 µM. For the same molecule, the GI50 [19] was 3.3 µM, the TGI [19] was > 53.2 µM and the GI50 [20] was 3.2 µM. The TGI [20] was 23.8 µM, the GI50 [21] was 2.08 µM and the TGI [21] was > 42.6 µM. It also gave a GI50 [22] of 0.551 µM, a TGI [22] of 3.21 µM and a GI50 [23] of 5.62 µM. The TGI [23] was > 55.5 µM, the GI50 [24] was 1.72 µM and the GI50 [25] was 0.904 µM. It also gave a TGI [25] of 6.97 µM, a GI50 [26] of 3.55 µM and a TGI [26] of 62.2 µM. The GI50 [27] was 3.38 µM, the TGI [27] was 22.9 µM and the GI50 [28] was 5.09 µM. For the same molecule, the TGI [28] was > 31 µM, the GI50 [29] was 1.91 µM and the TGI [29] was 14.7 µM. It also gave a GI50 [30] of 1.18 µM, a TGI [30] of 15.9 µM and a GI50 [31] of 4.85 µM. For the same molecule, the TGI [31] was 37.7 µM, the GI50 [32] was 2.8 µM and the TGI [32] was 20.5 µM. For the same molecule, the GI50 [33] was 47.8 µM, the TGI [33] was > 100 µM and the GI50 [34] was 4.65 µM. The TGI [34] was > 39.1 µM, the GI50 [35] was 2.67 µM and the TGI [35] was 10.6 µM. For the same molecule, the GI50 [36] was 3.23 µM, the TGI [36] was 22.4 µM and the GI50 [37] was 2.67 µM. For the same molecule, the TGI [37] was 18.3 µM, the GI50 [38] was 3.09 µM and the TGI [38] was 15 µM. For the same molecule, the GI50 [39] was 2.99 µM, the TGI [39] was > 100 µM and the GI50 [40] was > 100 µM. For the same molecule, the TGI [40] was > 100 µM, the GI50 [41] was 19.1 µM and the TGI [41] was 39.6 µM. It also gave a GI50 [42] of 1.46 µM, a TGI [42] of 11.2 µM and a GI50 [43] of 1.92 µM. For the same molecule, the TGI [43] was 8.95 µM, the GI50 [44] was 2.13 µM and the TGI [44] was 43.8 µM. For the same molecule, the GI50 [45] was 3.35 µM, the TGI [45] was 14.7 µM and the GI50 [46] was 15.2 µM. For the same molecule, the TGI [46] was 35.9 µM, the GI50 [47] was 0.0835 µM and the TGI [47] was 1.58 µM. For the same molecule, the GI50 [48] was 1.48 µM, the TGI [48] was 6.01 µM and the GI50 [49] was 2.58 µM. The TGI [49] was > 100 µM, the GI50 [50] was 11.9 µM and the TGI [50] was > 100 µM. It also gave a GI50 [51] of 1.14 µM, a TGI [51] of 5.82 µM and a GI50 [52] of 1.68 µM. It also gave a TGI [52] of 8.1 µM, a GI50 [53] of 0.434 µM and a GI50 [54] of 0.522 µM. For the same molecule, the TGI [54] was 11.4 µM, the GI50 [55] was 12.1 µM and the TGI [55] was > 100 µM. It also gave a GI50 [56] of 6.94 µM, a TGI [56] of 17.4 µM and a GI50 [57] of 2.5 µM. It also gave a TGI [57] of 64.7 µM.

With C[n+]1c(-c2ccccc2)c2cc(N)ccc2c2ccccc21 the GI50 [1] was 2.09 µM, the TGI [1] was 20.6 µM and the GI50 [2] was 1.98 µM. The TGI [2] was 6.63 µM, the GI50 [3] was 2.87 µM and the TGI [3] was 14.8 µM. The GI50 [4] was 6.01 µM, the TGI [4] was 25.1 µM and the GI50 [5] was 2.76 µM. The TGI [5] was 12.3 µM, the GI50 [6] was 2 µM and the TGI [6] was 5.03 µM. It also gave a GI50 [7] of 2.11 µM, a TGI [7] of 6.5 µM and a GI50 [8] of 1.99 µM. The TGI [8] was 20.5 µM, the GI50 [9] was 3.91 µM and the TGI [9] was > 100 µM. The GI50 [10] was 1.39 µM, the TGI [10] was > 44.3 µM and the GI50 [11] was 0.534 µM. For the same molecule, the TGI [11] was 7.07 µM, the GI50 [12] was 5.78 µM and the TGI [12] was > 44.2 µM. The GI50 [13] was 25.4 µM, the TGI [13] was > 100 µM and the GI50 [14] was 1.64 µM. For the same molecule, the TGI [14] was 9.75 µM, the GI50 [15] was 1.28 µM and the TGI [15] was 3.07 µM. The GI50 [16] was 2.75 µM, the TGI [16] was 44.6 µM and the GI50 [17] was 26.3 µM. The TGI [17] was > 100 µM, the GI50 [18] was 8.7 µM and the TGI [18] was > 58.5 µM. The GI50 [19] was > 63.7 µM, the TGI [19] was > 100 µM and the GI50 [20] was 2 µM. It also gave a TGI [20] of 7.97 µM, a GI50 [21] of 3.2 µM and a TGI [21] of 26.4 µM. For the same molecule, the GI50 [22] was 3.49 µM, the TGI [22] was 15.5 µM and the GI50 [23] was 4.45 µM. The TGI [23] was 31.8 µM, the GI50 [24] was 3.45 µM and the TGI [24] was 22.3 µM. The GI50 [25] was 13.3 µM, the TGI [25] was 60 µM and the GI50 [26] was 5.1 µM. For the same molecule, the TGI [26] was > 47.7 µM, the GI50 [27] was > 59.8 µM and the TGI [27] was > 100 µM. The GI50 [28] was 2.84 µM, the TGI [28] was 16 µM and the GI50 [29] was 7.87 µM. The TGI [29] was > 100 µM, the GI50 [30] was 2.51 µM and the TGI [30] was 28.4 µM. It also gave a GI50 [31] of 2.57 µM, a TGI [31] of 20 µM and a GI50 [32] of 7.13 µM. The TGI [32] was 38.2 µM, the GI50 [33] was > 83.8 µM and the TGI [33] was > 100 µM. For the same molecule, the GI50 [34] was 2.19 µM, the TGI [34] was 4.95 µM and the GI50 [35] was 3.22 µM. The TGI [35] was 14.2 µM, the GI50 [36] was 8.69 µM and the TGI [36] was > 59.5 µM. For the same molecule, the GI50 [37] was 4.16 µM, the TGI [37] was > 70.7 µM and the GI50 [38] was 2.44 µM. For the same molecule, the TGI [38] was 16.7 µM, the GI50 [39] was 2.42 µM and the TGI [39] was 14.9 µM. For the same molecule, the GI50 [40] was > 100 µM, the TGI [40] was > 100 µM and the GI50 [41] was 19.6 µM. For the same molecule, the TGI [41] was > 79.5 µM, the GI50 [42] was 12.4 µM and the TGI [42] was > 100 µM. For the same molecule, the GI50 [43] was 2.28 µM, the TGI [43] was 12.2 µM and the GI50 [44] was 3.38 µM. It also gave a TGI [44] of 50.5 µM, a GI50 [45] of 8.94 µM and a TGI [45] of 32.7 µM. For the same molecule, the GI50 [46] was 4.73 µM, the TGI [46] was > 100 µM and the GI50 [47] was 3.4 µM. The TGI [47] was 29.5 µM, the GI50 [48] was 3.48 µM and the TGI [48] was 22.2 µM. The GI50 [49] was 1.97 µM, the TGI [49] was 6 µM and the GI50 [50] was > 100 µM. For the same molecule, the TGI [50] was > 100 µM, the GI50 [51] was 4.12 µM and the TGI [51] was 57.3 µM. The GI50 [52] was 7.97 µM, the TGI [52] was > 100 µM and the GI50 [53] was 2.43 µM. For the same molecule, the TGI [53] was 17.9 µM, the GI50 [54] was 5.68 µM and the TGI [54] was > 78.1 µM. The GI50 [55] was 11.7 µM, the TGI [55] was > 91.9 µM and the GI50 [56] was 6.08 µM. It also gave a TGI [56] of 32.9 µM, a GI50 [57] of 2.13 µM and a TGI [57] of 20.2 µM.
